Results on 12 molecules are retold here after PMC10301092, “New Insights into the Opioid Analgesic Profile of cis-(−)-N-Normetazocine-derived Ligands” (Molecules, 2023).

Molecules are shown by their SMILES. Values joined by “and” are separate entries in the source; they are usually repeats but may differ in a detail not shown here. Equal values may be shown once. Read-outs that look alike come from different tables or passages of the source.

Assay [1] concerns the target T1, sigma-1 receptor (σ1R) (Homo sapiens, UniProt Q99720). Nature of the assay: σ1R radioligand binding assay.
Experimental: (§1) The radioligand binding assays and the data analysis were performed as previously reported [24].
For assay [2], the target named is T2, μ opioid receptor (MOR) (Homo sapiens, UniProt P35372). The assay can be described thus: MOR radioligand binding assay.
T2 sequence (P35372 whole entry, species assumed): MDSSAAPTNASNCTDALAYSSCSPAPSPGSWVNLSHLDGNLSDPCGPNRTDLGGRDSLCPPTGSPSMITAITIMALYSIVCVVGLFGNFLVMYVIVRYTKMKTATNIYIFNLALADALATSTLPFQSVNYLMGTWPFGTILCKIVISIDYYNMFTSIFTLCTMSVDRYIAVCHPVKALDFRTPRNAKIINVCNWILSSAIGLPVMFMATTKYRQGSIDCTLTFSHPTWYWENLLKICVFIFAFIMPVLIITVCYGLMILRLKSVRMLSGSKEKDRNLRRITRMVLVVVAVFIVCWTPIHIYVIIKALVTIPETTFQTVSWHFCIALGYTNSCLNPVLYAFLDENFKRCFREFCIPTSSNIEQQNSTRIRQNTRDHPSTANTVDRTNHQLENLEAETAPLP
The next assay deals with T3, MOR (Mus musculus, UniProt P42866).
T3 construct: vasa deferentia were removed from the mice; from tissue; host or cells: vas deferens of male NMRI mice
T3 sequence (P42866 whole entry): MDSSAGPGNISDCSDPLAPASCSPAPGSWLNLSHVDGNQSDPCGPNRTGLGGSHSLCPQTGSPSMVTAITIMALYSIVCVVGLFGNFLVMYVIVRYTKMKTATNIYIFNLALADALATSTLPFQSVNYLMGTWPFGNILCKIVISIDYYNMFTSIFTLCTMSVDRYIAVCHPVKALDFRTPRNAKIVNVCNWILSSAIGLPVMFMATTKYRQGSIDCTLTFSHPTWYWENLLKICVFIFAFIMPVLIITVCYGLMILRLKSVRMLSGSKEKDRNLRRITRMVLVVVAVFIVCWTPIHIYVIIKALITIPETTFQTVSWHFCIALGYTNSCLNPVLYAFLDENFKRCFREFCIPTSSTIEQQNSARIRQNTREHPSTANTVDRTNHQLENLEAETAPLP
Nature of the assay: MVD assay, Ke with naloxone / against DAMGO (MOR). It counts as cell-based. The note with it: for functional profile at MOR: MVD, result in words; for Ke ± SEM (nM) Naloxone (MOR): Ke of naloxone against the listed agonist in isolated MVD, single-dose method, n = 5–9.

Assay [3] deals with T4, sigma-2 receptor (σ2R) (Homo sapiens, UniProt Q5BJF2). Nature of the assay: σ2R radioligand binding assay.
T4 sequence (Q5BJF2 whole entry): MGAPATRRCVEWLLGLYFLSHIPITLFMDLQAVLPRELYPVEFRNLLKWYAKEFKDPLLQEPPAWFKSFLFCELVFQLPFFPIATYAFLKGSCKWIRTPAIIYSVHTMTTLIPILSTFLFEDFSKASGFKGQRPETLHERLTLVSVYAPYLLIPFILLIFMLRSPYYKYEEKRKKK
Experimental: as §1
Assay [4] deals with T5, κ opioid receptor (KOR) (Homo sapiens, UniProt P41145). Nature of the assay: KOR radioligand binding assay.
T5 sequence (P41145 whole entry): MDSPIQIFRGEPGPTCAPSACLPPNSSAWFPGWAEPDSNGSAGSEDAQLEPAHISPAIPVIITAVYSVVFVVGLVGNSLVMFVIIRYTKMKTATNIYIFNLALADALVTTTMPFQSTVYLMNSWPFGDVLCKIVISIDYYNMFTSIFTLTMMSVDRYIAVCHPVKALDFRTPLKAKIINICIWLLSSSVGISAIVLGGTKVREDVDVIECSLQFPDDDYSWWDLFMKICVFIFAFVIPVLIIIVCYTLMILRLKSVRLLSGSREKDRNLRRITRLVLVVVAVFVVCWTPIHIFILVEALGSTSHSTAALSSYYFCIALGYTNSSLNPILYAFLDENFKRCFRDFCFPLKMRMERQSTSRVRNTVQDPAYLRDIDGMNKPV
A further assay concerns the target δ opioid receptor (DOR) (Homo sapiens, UniProt P41143). Nature of the assay: DOR radioligand binding assay.
The next assay concerns Male Wistar rats. Nature of the assay: Inflammatory pain model (CFA-evoked hyperalgesia, Randall–Selitto paw pressure threshold). It counts as in vivo, rat. The note with it: s.c. Here is the method: Inflammatory pain model (CFA-evoked hyperalgesia). Male Wistar rats (190–250 g) (Toxicoop Zrt., Budapest, Hungary) under brief isoflurane (Willy Rüsch GmbH, Böblingen, Germany) anesthesia received i.pl. injection of 0.15 mL complete Freund’s adjuvant (CFA) (source), a water-in-oil emulsion of killed mycobacterium, into the right hind paw. The experimental procedures were performed as described previously.
Experimental paradigms of CFA-evoked hyperalgesia. The measurement of the effect of the test compound was carried out 4 days following i.pl. CFA injection as described previously. Briefly, the baseline (pretest compound) of the paw pressure threshold (PPT) of both inflamed and noninflamed paws was determined. Next, the drug or vehicle was s.c. administered at a volume of 5 mL/kg body weight. Then, the response threshold to mechanical pressure stimulation of inflamed and noninflamed paws was given as paw pressure thresholds (PPTs) and measured at 30 and 60 min post administration using an arbitrary cutoff weight of twice the baseline.

The next assay concerns mouse vas deferens (MVD). The assay can be described thus: Isolated mouse vas deferens (MVD): inhibition of electrically evoked contractions. Conditions: for IC50: 50% inhibitory concentration on electrically evoked contractions of isolated MVD, n = 5–9. It counts as cell-based. As for the experimental part:
Animals. Male NMRI mice (Toxicoop Zrt., Budapest, Hungary) weighing 35–45 g were kept in groups in a temperature- and humidity-controlled room under a 12 h light/dark cycle and with food and water available ad libitum. Each animal was used for one experiment.
Isolated mouse vas deferens. The preparation of MVD was carried out as previously described by Hughes et al. with minor modifications. Briefly, vasa deferentia were removed from the mice and unsheathed from the surrounding fat, connective tissue, and blood vessels. They were then suspended between an upper (ring) and a lower (straight) electrode positioned at 5.5 cm, in 5 mL organ baths containing Krebs solution (concentrations in mM: NaCl, 118.0; NaHCO3, 25.0; KCl, 4.7; KH2PO4, 1.2; glucose, 11.0; CaCl2, 2.5; and MgSO4, 1.2) aerated with a gas mixture of 95% O2 and 5% CO2 and at a constant temperature of 36 °C. The upper end of the isolated organ was attached to a transducer using a thread and connected to a computer via an amplifier (PowerLab 4/20, ADInstruments, Castle Hill, NSW, Australia). The resting tension was adjusted to 0.1 g. Electrical field stimulation was applied through trains of 10 Hz with 10 rectangular impulses at a 1 ms pulse width, 9 V/cm (i.e., supramaximal intensity), repeated with 0.1 Hz (Stimulator 88, Grass Medical Instruments, Quincy, MA, USA).
Experimental paradigms. The experimental design of MVD required a 50 min equilibration period under electrical field stimulation, during which Krebs solution was changed every 5 min. After the equilibration period, test compounds were added cumulatively, allowing a minimum of 2 min between doses. To determine the test compounds’ dissociation constant, Ke, vasa deferentia were preincubated with the antagonist naloxone, and without washing a single concentration of the agonist test, the compound was added.
Data analysis. The efficacy of each test compound to inhibit electrically evoked contraction was measured as the percentage change from baseline. […] Data are presented as the mean ± SEM. Ke values were calculated using dose ratio and the single-dose method. […]

A further assay deals with Male Swiss CD1 mice. The assay can be described thus: Thermal acute pain model (radiant heat tail-flick test). Type of assay: in vivo, mouse. Here is the method: Thermal acute pain model (tail-flick test). Male Swiss CD1 mice (Envigo Laboratories, S. Pietro al Natisone (UD)) weighing 25–30 g were housed at six per cage, kept at a constant room temperature (25 ± 1 °C), under a 12:12 h light-and-dark cycle with food and water ad libitum. Each mouse was used for only one experiment. […] The radiant heat tail-flick test consists of irradiation of the lower third of the tail with an infrared source (Ugo Basile, Comerio, Italy). The day before the experiment, performed at room temperature (25 ± 1 °C), mice were habituated to the procedure for measuring the nociception threshold. The basal predrug latency was established between 3 and 6 s and was calculated as the average of the first three measurements, which were performed at 5 min intervals. A cutoff latency of 15 s was established to minimize damage to the tail. All tested compounds were dissolved in pyrogen-free isotonic saline (Baxter Healthcare, Deerfield, IL, USA) and DMSO (5%) and were administered to mice i.p. Post-treatment tail-flick latencies (TFLs) were determined at 15, 30, 45, 60, and 90 min after i.p. injection.

The next assay has as its target T6, KOR (Mus musculus, UniProt P33534).
T6 construct: vasa deferentia were removed from the mice; from tissue; host or cells: vas deferens of male NMRI mice
The assay can be described thus: MVD assay, Ke with nor-BNI (KOR). It counts as cell-based. The note with it: Ke of nor-BNI against the listed agonist in isolated MVD; n = 5–9.

A further assay addresses T7, DOR (Mus musculus, UniProt P32300).
T7 construct: vasa deferentia were removed from the mice; from tissue; host or cells: vas deferens of male NMRI mice
Nature of the assay: MVD assay, Ke with naltrindole (DOR). It counts as cell-based. Conditions: Ke of naltrindole against the listed agonist in isolated MVD; n = 5–9.

Assay [5] concerns the target T5, κ opioid receptor (KOR). Conditions: read-out: Ki (nM) ± SD KOR; cited from earlier work.
For assay [6], the target named is T4, sigma-2 receptor (σ2R). The note with it: read-out: Ki (nM) ± SD σ2R; cited from earlier work.
Assay [7] addresses T1, sigma-1 receptor (σ1R). The note with it: read-out: Ki (nM) ± SD σ1R; cited from earlier work.
Assay [8] deals with T2, μ opioid receptor (MOR). The note with it: read-out: Ki (nM) ± SD MOR; cited from earlier work.
The mark [9] stands for this setting: mean ± SD of at least two experiments in duplicate, read-out: Ki (nM) ± SD MOR.
Setting [10] is: mean ± SD of at least two experiments in duplicate, read-out: Ki (nM) ± SD KOR.
The mark [11] stands for this setting: mean ± SD of at least two experiments in duplicate, read-out: Ki (nM) ± SD DOR.

Chain of δ opioid receptor (DOR) (P41143 whole entry): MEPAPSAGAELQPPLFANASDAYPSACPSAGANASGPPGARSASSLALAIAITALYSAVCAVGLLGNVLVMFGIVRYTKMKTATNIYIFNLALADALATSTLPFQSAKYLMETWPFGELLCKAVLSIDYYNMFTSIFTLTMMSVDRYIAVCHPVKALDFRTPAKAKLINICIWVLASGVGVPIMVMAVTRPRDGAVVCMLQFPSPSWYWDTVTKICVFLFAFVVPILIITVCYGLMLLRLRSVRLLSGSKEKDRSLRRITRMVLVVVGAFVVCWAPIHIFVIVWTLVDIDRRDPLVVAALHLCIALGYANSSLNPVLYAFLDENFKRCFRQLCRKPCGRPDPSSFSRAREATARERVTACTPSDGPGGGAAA
T6 sequence (P33534 whole entry): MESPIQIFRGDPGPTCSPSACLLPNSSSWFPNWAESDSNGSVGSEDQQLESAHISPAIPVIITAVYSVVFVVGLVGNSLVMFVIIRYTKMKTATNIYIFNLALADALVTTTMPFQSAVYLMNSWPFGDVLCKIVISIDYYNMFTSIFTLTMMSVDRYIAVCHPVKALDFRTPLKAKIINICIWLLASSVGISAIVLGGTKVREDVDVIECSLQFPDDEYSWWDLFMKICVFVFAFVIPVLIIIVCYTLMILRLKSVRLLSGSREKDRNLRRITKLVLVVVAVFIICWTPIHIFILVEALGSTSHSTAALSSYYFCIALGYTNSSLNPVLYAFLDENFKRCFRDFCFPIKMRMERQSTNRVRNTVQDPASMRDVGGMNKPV
T1 sequence (Q99720 whole entry, species assumed): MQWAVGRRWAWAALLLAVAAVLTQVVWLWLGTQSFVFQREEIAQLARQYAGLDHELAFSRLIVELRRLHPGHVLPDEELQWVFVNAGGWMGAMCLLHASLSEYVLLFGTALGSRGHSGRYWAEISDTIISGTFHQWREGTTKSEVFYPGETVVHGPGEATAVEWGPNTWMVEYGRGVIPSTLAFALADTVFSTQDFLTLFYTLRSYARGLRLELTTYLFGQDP
T7 sequence (P32300 whole entry): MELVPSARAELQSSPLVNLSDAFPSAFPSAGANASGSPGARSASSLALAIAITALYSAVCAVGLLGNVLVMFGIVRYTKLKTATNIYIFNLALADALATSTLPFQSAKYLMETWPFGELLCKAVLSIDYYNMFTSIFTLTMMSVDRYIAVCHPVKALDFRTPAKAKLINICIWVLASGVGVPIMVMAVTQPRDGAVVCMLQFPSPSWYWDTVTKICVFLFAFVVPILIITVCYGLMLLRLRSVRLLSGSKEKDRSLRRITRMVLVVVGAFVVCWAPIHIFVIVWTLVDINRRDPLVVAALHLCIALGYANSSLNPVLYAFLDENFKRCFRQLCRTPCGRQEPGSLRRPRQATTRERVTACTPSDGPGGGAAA

Turning to `CN1CCN(CCc2ccc(Cl)c(Cl)c2)CC1` [BD-1063, reference compound], on sigma-1 receptor (σ1R) [1] (mean ± SD of at least two experiments in duplicate, read-out: Ki (nM) ± SD σ1R), the inhibition constant (Ki) was found to be 14 ± 2.7 nM.
Take `C[C@H]1[C@H]2Cc3ccc(O)cc3[C@]1(C)CCN2CCC(=O)Nc1ccccc1N` [Compound 3, N-(2-aminophenyl)-3-((2R,6R,11R)-8-hydroxy-6,11-dimethyl-1,4,5,6-tetrahydro-2,6-methanobenzo[d]azocin-3(2H)-yl)propanamide]: the Ki on sigma-1 receptor (σ1R) [1] is above 10000 nM; on μ opioid receptor (MOR) [2], 5.96 ± 0.08 nM; at sigma-2 receptor (σ2R) [3], above 10000 nM; at κ opioid receptor (KOR) [4], 93 ± 0.63 nM; at δ opioid receptor (DOR), 155 ± 1.5 nM. Further, on MOR, the “functional profile at MOR” value is listed as “antagonist”.
Consider `C[C@@H]1[C@@H]2Cc3ccc(O)cc3[C@@]1(C)CCN2CCC(=O)Nc1ccccc1N` [Compound 4, N-(2-aminophenyl)-3-((2S,6S,11S)-8-hydroxy-6,11-dimethyl-1,4,5,6-tetrahydro-2,6-methanobenzo[d]azocin-3(2H)-yl)propanamide], for which the Ki on sigma-1 receptor (σ1R) [1] is 729 ± 168 nM; on μ opioid receptor (MOR) [2], 408 ± 11 nM; at sigma-2 receptor (σ2R) [3], above 10000 nM; on κ opioid receptor (KOR) [4] it was 154 ± 6 nM; on δ opioid receptor (DOR), 3120 ± 73 nM.
As for `C[C@H]1[C@H]2Cc3ccc(O)cc3[C@]1(C)CCN2CCCC(=O)Nc1ccccc1N` [Compound 5, N-(2-aminophenyl)-4-((2R,6R,11R)-8-hydroxy-6,11-dimethyl-1,4,5,6tetrahydro-2,6-methanobenzo[d]azocin-3(2H)-yl)butanamide], the Ki was above 10000 nM at sigma-1 receptor (σ1R) [1]; 479 ± 10 nM at μ opioid receptor (MOR) [2] (setting [9]); above 10000 nM at sigma-2 receptor (σ2R) [3]; 970 ± 21 nM on κ opioid receptor (KOR) [4] (setting [10]); 1030 ± 16 nM at δ opioid receptor (DOR) (setting [11]).
For the molecule `C[C@@H]1[C@@H]2Cc3ccc(O)cc3[C@@]1(C)CCN2CCCC(=O)Nc1ccccc1N` [Compound 6, N-(2-aminophenyl)-4-((2S,6S,11S)-8-hydroxy-6,11-dimethyl-1,4,5,6tetrahydro-2,6-methanobenzo[d]azocin-3(2H)-yl)butanamide], the Ki on sigma-1 receptor (σ1R) [1] is 857 ± 212 nM; on μ opioid receptor (MOR) [2] (setting [9]), 810 ± 15 nM; at sigma-2 receptor (σ2R) [3], above 10000 nM; on κ opioid receptor (KOR) [4] (setting [10]), 2455 ± 11 nM; on δ opioid receptor (DOR) (setting [11]), 4190 ± 60 nM.
For `C[C@H]1[C@H]2Cc3ccc(O)cc3[C@]1(C)CCN2CCC(=O)Nc1ccccn1` [Compound 7, 3-((2R,6R,11R)-8-hydroxy-6,11-dimethyl-1,4,5,6-tetrahydro-2,6-methanobenzo[d]azocin-3(2H)-yl)-N-(pyridin-2-yl)propanamide], the “restoring hyperalgesia of inflamed paws (PPT)” value in the assay with Male Wistar rats (5000 and 2500 µg/kg, at 30 and 60 min) was “effective”; in the assay on Male Wistar rats (lower doses of the range 625–5000 µg/kg), “tendency of antinociceptive effect”. In addition, in the assay on Male Wistar rats (in certain doses, compared with vehicle), the “effect on noninflamed PPT” value was “significantly increase the noninflamed PPT”. For the same molecule, the inhibition constant (Ki) on sigma-1 receptor (σ1R) [1] is above 10000 nM; at μ opioid receptor (MOR) [2], 1.49 ± 0.24 nM; at sigma-2 receptor (σ2R) [3] it was above 10000 nM; on κ opioid receptor (KOR) [4], 64 ± 7 nM; at δ opioid receptor (DOR), 138 ± 5 nM. Moreover, the IC50 with mouse vas deferens (MVD) (Mus musculus) stood at 66.88 ± 0.38 nM. Further, in the assay on mouse vas deferens (MVD) (result in words), the “effect on electrically evoked MVD smooth muscle contractions” value is listed as “concentration-dependent inhibitory effect”. For the same molecule, the “effect on mean tail-flick latency” value with Male Swiss CD1 mice (i.p., 3, 4, and 5 mg/kg, compared with vehicle group) is recorded as “increased the mean tail-flick latency”. Besides, the “time of highest antinociceptive effect” value with Male Swiss CD1 mice (tail-flick, after i.p. injection) is 45 min and 30 to 45 min. Also, the “Ke ± SEM (nM) Naloxone (MOR)” value at MOR is recorded as 2.42 ± 0.45 nM. Also, the “functional profile at MOR” value on MOR is “agonist”. Further, the “Ke ± SEM (nM) Nor-BNI (KOR)” value on KOR stood at 68.18 ± 15.98 nM.
In the case of `C[C@@H]1[C@@H]2Cc3ccc(O)cc3[C@@]1(C)CCN2CCC(=O)Nc1ccccn1` [Compound 8, 3-((2S,6S,11S)-8-hydroxy-6,11-dimethyl-1,4,5,6-tetrahydro-2,6-methanobenzo[d]azocin-3(2H)-yl)-N-(pyridin-2-yl)propanamide], the inhibition constant (Ki) is 2510 ± 737 nM on sigma-1 receptor (σ1R) [1]; 563 ± 23 nM on μ opioid receptor (MOR) [2]; above 10000 nM at sigma-2 receptor (σ2R) [3]; 1380 ± 20 nM on κ opioid receptor (KOR) [4]; above 10000 nM on δ opioid receptor (DOR).
In the case of `CC1(C)SSC(C)(C)[C@@H](NC(=O)[C@@H](N)Cc2ccc(O)cc2)C(=O)NCC(=O)N[C@@H](Cc2ccccc2)C(=O)N[C@H]1C(=O)O` [DPDPE], at KOR, the “Ke ± SEM (nM) Nor-BNI (KOR)” value is 2.57 ± 1.81 nM.
In the case of `CC[C@@]12CCN(CC3CC3)C(C(=O)c3ccc(O)cc31)[C@@H]2C` [EKC, reference compound], the “Ke ± SEM (nM) Naltrindole (DOR)” value at DOR came out at 11.47 ± 5.35 nM. Further, the IC50 in the assay on mouse vas deferens (MVD) is 14.1 ± 0.69 nM. Besides, the “Ke ± SEM (nM) Naloxone (MOR)” value at MOR worked out at 8.82 ± 0.52 nM. Moreover, the “Ke ± SEM (nM) Nor-BNI (KOR)” value on KOR is reported as 1.76 ± 0.35 nM.
Regarding `C[C@H]1[C@H]2Cc3ccc(O)cc3[C@]1(C)CCN2CCC(=O)Nc1ccccc1` [LP1], the “Ki Ratios DOR/MOR” value on μ opioid receptor (MOR) [2] (ratio of Ki DOR to Ki MOR) is recorded as 35.1. Moreover, at μ opioid receptor (MOR) [2] (ratio of Ki KOR to Ki MOR), the “Ki Ratios KOR/MOR” value was 132.5. For the same molecule, the Ki on κ opioid receptor (KOR) [5] was 110 ± 6 nM; on sigma-2 receptor (σ2R) [6], 1680 nM; on sigma-1 receptor (σ1R) [7], 149 ± 4 nM.
In the case of `CCC(=O)N(CC)c1ccccc1` [N-ethyl-N-phenyl-propanamide], the inhibition constant Ki at μ opioid receptor (MOR) [8] was 136 nM.
For the molecule `CCC(=O)N(C)c1ccccc1` [N-methyl-N-phenyl-propanamide], the Ki on μ opioid receptor (MOR) [8] is 65 nM.

A word on the Ki: it is the dissociation constant of the complex between target and ligand, obtained from inhibition or displacement. Broadly, the IC50 is the concentration that inhibits the measured activity by half.
